Some results are limits rather than exact numbers.

Data set [1] has as its system Rattus norvegicus. In words: Antiinflammatory activity in albino Charles-Foster rat assessed as inhibition of carrageenan-induced paw oedema at 10 mg/kg, po measured before 1 hr and after 3 hrs of carrageenan challenge relative to control. The class given is functional. (The carrageenan paw model is a standard test of acute inflammation.)
The test system of data set [2] is Mus musculus. In words: Analgesic activity in mouse assessed as protection against phenylquinone-induced writhing at 10 mg/kg, po administered 1 hr before phenylquinone challenge measured for 5 mins relative to control. The class given is functional. On the technique in general: An intraperitoneal irritant provokes the stretching counted in writhing tests.
The subject of data set [3] is Rattus norvegicus. Nature of the data set: Antiinflammatory activity in albino Charles-Foster rat assessed as inhibition of carrageenan-induced paw oedema at 7.5 mg/kg, po measured before 1 hr and after 3 hrs of carrageenan challenge relative to control. The data set is classed as functional.
Data set [4] deals with Mus musculus. In words: Analgesic activity in mouse assessed as protection against phenylquinone-induced writhing at 5 mg/kg, po administered 1 hr before phenylquinone challenge measured for 5 mins relative to controll. The data set is classed as functional.
Data set [5] deals with Mus musculus. In words: Analgesic activity in mouse assessed as protection against phenylquinone-induced writhing at 7.5 mg/kg, po administered 1 hr before phenylquinone challenge measured for 5 mins relative to controll. The class given is functional.
Data set [6] concerns Rattus norvegicus. Nature of the data set: Antiinflammatory activity in albino Charles-Foster rat assessed as inhibition of carrageenan-induced paw oedema at 5 mg/kg, po measured before 1 hr and after 3 hrs of carrageenan challenge relative to control. The data set is classed as functional.
Data set [7] relates to Rattus norvegicus. Nature of the data set: Antiinflammatory activity in albino Charles-Foster rat assessed as inhibition of carrageenan-induced paw oedema at 50 mg/kg, po measured before 1 hr and after 3 hrs of carrageenan challenge relative to control. The data set is classed as functional.
The subject of data set [8] is Mus musculus. In words: Analgesic activity in mouse assessed as protection against phenylquinone-induced writhing at 100 mg/kg, po administered 1 hr before phenylquinone challenge measured for 5 mins relative to control. The class given is functional.
Data set [9] deals with Rattus norvegicus. In words: Antiinflammatory activity in albino Charles-Foster rat assessed as inhibition of carrageenan-induced paw oedema at 100 mg/kg, po measured before 1 hr and after 3 hrs of carrageenan challenge relative to control. The class given is functional.
The test system of data set [10] is Rattus norvegicus. In words: Antiinflammatory activity in albino Charles-Foster rat assessed as inhibition of carrageenan-induced paw oedema at 25 mg/kg, po measured before 1 hr and after 3 hrs of carrageenan challenge relative to control. The class given is functional.
Data set [11] has as its system Mus musculus. In words: Analgesic activity in mouse assessed as protection against phenylquinone-induced writhing at 25 mg/kg, po administered 1 hr before phenylquinone challenge measured for 5 mins relative to control. The data set is classed as functional.
Data set [12] concerns the target T1, Prostaglandin G/H synthase 2 (Homo sapiens) (UniProt P35354).
T1 sequence (whole entry): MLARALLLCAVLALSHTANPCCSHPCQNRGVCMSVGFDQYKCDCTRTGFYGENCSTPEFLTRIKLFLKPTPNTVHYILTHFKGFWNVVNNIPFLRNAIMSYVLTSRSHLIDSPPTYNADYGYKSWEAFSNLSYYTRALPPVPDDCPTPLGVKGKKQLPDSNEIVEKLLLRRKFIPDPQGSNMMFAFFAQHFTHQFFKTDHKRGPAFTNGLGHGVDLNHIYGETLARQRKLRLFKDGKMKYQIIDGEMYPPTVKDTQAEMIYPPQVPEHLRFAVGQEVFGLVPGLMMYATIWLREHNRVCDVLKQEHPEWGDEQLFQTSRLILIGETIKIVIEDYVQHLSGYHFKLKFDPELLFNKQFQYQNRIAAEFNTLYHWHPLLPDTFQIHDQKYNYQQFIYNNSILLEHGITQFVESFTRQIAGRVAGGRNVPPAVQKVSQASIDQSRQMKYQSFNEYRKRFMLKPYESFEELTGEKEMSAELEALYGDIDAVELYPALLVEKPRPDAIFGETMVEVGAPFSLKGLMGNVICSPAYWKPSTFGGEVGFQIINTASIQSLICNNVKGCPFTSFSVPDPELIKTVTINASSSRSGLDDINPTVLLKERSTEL
In words: Inhibition of COX2. Also on record: concentration or dose not given beside the values. The conditions noted are these: concentration not given here.

Data set [13] deals with Mus musculus. In words: Analgesic activity in mouse assessed as protection against phenylquinone-induced writhing at 50 mg/kg, po administered 1 hr before phenylquinone challenge measured for 5 mins relative to control. The data set is classed as functional.
Data set [14] is described as follows: Toxicity in 24 hrs fasted Albino rat assessed as ulcerogenic activity after 8 hrs. Conditions: in vivo, read-out: UD50. The data set is classed as organism-based.
The target of data set [15] is Prostaglandin G/H synthase 1 (Homo sapiens) (UniProt P23219). Nature of the data set: Inhibition of COX1. Details: concentration or dose not given beside the values. Conditions: concentration not given here.
Chain of Prostaglandin G/H synthase 1 (Homo sapiens) (P23219 whole entry): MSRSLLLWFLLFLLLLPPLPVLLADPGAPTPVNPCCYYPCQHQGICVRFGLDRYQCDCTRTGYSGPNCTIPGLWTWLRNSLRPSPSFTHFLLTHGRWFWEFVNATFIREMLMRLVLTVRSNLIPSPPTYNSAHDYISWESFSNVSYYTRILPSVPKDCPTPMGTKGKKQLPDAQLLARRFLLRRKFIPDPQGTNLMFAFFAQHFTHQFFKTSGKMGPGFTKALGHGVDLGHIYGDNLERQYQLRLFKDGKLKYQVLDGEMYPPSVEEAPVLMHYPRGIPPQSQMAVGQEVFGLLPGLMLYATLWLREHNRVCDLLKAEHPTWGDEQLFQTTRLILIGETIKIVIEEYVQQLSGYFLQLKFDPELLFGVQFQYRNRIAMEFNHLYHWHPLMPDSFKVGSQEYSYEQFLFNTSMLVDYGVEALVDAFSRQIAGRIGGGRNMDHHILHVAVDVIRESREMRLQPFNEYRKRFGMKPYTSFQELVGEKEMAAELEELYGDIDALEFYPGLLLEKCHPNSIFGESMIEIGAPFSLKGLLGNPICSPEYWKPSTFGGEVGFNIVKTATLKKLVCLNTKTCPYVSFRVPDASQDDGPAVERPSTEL
Data set [16] in a line: Acute toxicity in orally dosed albino mouse after 24 hrs. The data set is classed as organism-based, albino Charles-Foster. The conditions noted are these: in vivo, po, read-out: ALD50.

For `COc1ccc2c(c1)c(CC(=O)O)c(C)n2C(=O)c1ccc(Cl)cc1` [INDOMETHACIN], the inhibition in vivo at 10 mg/kg in the data set with Rattus norvegicus [1] was determined as 93.2%. Moreover, the Activity with Mus musculus [2] was found to be 64.33%; in the data set with Mus musculus [4], 41.3%; in the data set on Mus musculus [5], 59.25%. Further, in the data set on Rattus norvegicus [3], the inhibition in vivo at 7.5 mg/kg turned out to be 63.1%. In addition, the inhibition in vivo at 5 mg/kg in the data set with Rattus norvegicus [6] is 52.2%. For the same molecule, the inhibition in vivo at 50 mg/kg in the data set with Rattus norvegicus [7] came to 52.2%.
Take `O=C1C(Cl)C(c2ccccc2Cl)N1c1nnc(CNc2nnc3c4ccccc4nc-3s2)s1` (stereo not given): the Activity in the data set on Mus musculus [8] is reported as 58%; with Mus musculus [11], 19%; with Mus musculus [13], 38%. The inhibition in vivo at 100 mg/kg in the data set with Rattus norvegicus [9] was determined as 66.8%. Also, the inhibition in vivo at 25 mg/kg in the data set with Rattus norvegicus [10] was 28.8%. In addition, the inhibition in data set [12] was 93.3%; in [15], 69.1%. Further, the TD50 at 8 h in data set [14] worked out at 133 mg/kg. For the same molecule, in the data set with Rattus norvegicus [7], the inhibition in vivo at 50 mg/kg was 28.8%. Moreover, the LD50 at 24 h in data set [16] is over 800 mg/kg.
For `COc1ccc(/C=N/c2nnc(CNc3nnc4c5ccccc5nc-4s3)s2)cc1`, the values for the inhibition in data set [12] and in data set [15] were 29.4% and 26.2%, respectively. For the same molecule, the Activity with Mus musculus [13] came out at 15.67%. For the same molecule, the inhibition in vivo at 50 mg/kg in the data set on Rattus norvegicus [7] turned out to be 22.4%. Further, the LD50 at 24 h in data set [16] is over 800 mg/kg.
The like results for `CN(C)c1ccc(C2C(Cl)C(=O)N2c2nnc(CNc3nnc4c5ccccc5nc-4s3)s2)cc1` (stereo not given) were, in that order, 65.8%, 37.2%, 22.67%, 33.6% and over 800 mg/kg.
In the case of `COc1ccc(C2C(Cl)C(=O)N2c2nnc(CNc3nnc4c5ccccc5nc-4s3)s2)cc1` (stereo not given), the results for the inhibition in data set [12] and in data set [15] were 66.3% and 39.5%, respectively. Moreover, in the data set on Mus musculus [13], the Activity is reported as 21.27%. The inhibition in vivo at 50 mg/kg with Rattus norvegicus [7] was determined as 31.6%. For the same molecule, the LD50 at 24 h in data set [16] was over 800 mg/kg.
For the molecule `Cc1ccc(C2SCC(=O)N2c2nnc(CNc3nnc4c5ccccc5nc-4s3)s2)cc1` (stereo not given), the inhibition in data set [12] amounted to 36.3%; in data set [15] it was 33.4%. Besides, the Activity in the data set with Mus musculus [13] was 22.08%. Besides, the inhibition in vivo at 50 mg/kg in the data set with Rattus norvegicus [7] was 37%. Besides, in data set [16], the LD50 at 24 h is over 800 mg/kg.
For `CCCCC1C(=O)N(c2ccccc2)N(c2ccccc2)C1=O` [PHENYLBUTAZONE], the Activity was 32.5% with Mus musculus [8], 14.26% with Mus musculus [11] and 32.5% with Mus musculus [13]. For the same molecule, the inhibition in vivo at 100 mg/kg in the data set with Rattus norvegicus [9] turned out to be 64.7%. For the same molecule, the inhibition in vivo at 25 mg/kg in the data set on Rattus norvegicus [10] was 26.8%. In addition, the TD50 at 8 h in data set [14] came out at 54.6 mg/kg. In addition, the inhibition in vivo at 50 mg/kg with Rattus norvegicus [7] was found to be 36.8%. For the same molecule, the LD50 at 24 h in data set [16] is over 800 mg/kg.
On to `O=C1CSC(c2ccccc2Cl)N1c1nnc(CNc2nnc3c4ccccc4nc-3s2)s1` (stereo not given), for which the Activity in the data set with Mus musculus [8] was 36.36%; with Mus musculus [11], 12.32%; with Mus musculus [13], 24.67%. For the same molecule, the inhibition in vivo at 100 mg/kg in the data set with Rattus norvegicus [9] is 44.5%. Besides, the inhibition in vivo at 25 mg/kg in the data set on Rattus norvegicus [10] is 22.4%. Besides, the results for the inhibition in data set [12] and in data set [15] were 45.4% and 43.1%, respectively. In addition, the TD50 at 8 h in data set [14] turned out to be 167 mg/kg. In addition, the inhibition in vivo at 50 mg/kg in the data set with Rattus norvegicus [7] came to 38.5%. For the same molecule, in [16], the LD50 at 24 h was over 800 mg/kg.
`COc1ccccc1C1C(Cl)C(=O)N1c1nnc(CNc2nnc3c4ccccc4nc-3s2)s1` (stereo not given): the inhibition in data set [12] came to 64.3%; in data set [15], 38.7%. Also, in the data set on Mus musculus [13], the Activity turned out to be 35%. In addition, the inhibition in vivo at 50 mg/kg with Rattus norvegicus [7] is 36.2%. For the same molecule, the LD50 at 24 h in data set [16] is over 800 mg/kg.
On to `Clc1ccccc1/C=N/c1nnc(CNc2nnc3c4ccccc4nc-3s2)s1`, for which the inhibition in [12] was 34.4%; in data set [15], 28.7%. The Activity in the data set with Mus musculus [13] is reported as 18.66%. Also, the inhibition in vivo at 50 mg/kg in the data set with Rattus norvegicus [7] turned out to be 26%. Besides, the LD50 at 24 h in [16] is over 800 mg/kg.
Turning to `O=C1CSC(c2ccc(O)cc2)N1c1nnc(CNc2nnc3c4ccccc4nc-3s2)s1` (stereo not given), the inhibition is 44% in data set [12] and 34.4% in data set [15]. Moreover, the Activity with Mus musculus [13] amounted to 9.95%. Moreover, in the data set on Rattus norvegicus [7], the inhibition in vivo at 50 mg/kg came to 25.3%. In addition, the LD50 at 24 h in data set [16] is over 800 mg/kg.
Consider `O=C1CSC(c2ccc(Cl)cc2)N1c1nnc(CNc2nnc3c4ccccc4nc-3s2)s1` (stereo not given), for which the inhibition turned out to be 44.1% in data set [12] and 36.5% in data set [15]. In addition, the Activity in the data set on Mus musculus [13] was determined as 8.78%. In addition, in the data set on Rattus norvegicus [7], the inhibition in vivo at 50 mg/kg came to 18.2%. Also, the LD50 at 24 h in [16] is over 800 mg/kg.

The term inhibition in vivo denotes the relative decrease from the control value, in per cent. Usually inhibition stands for the percentage by which the read-out fell short of the control.

Source of the values: ChEMBL document CHEMBL1154433, “Synthesis of new substituted azetidinoyl and thiazolidinoyl-1,3,4-thiadiazino (6,5-b) indoles as promising anti-inflammatory agents” (Eur J Med Chem, 2008).
